The results in this text go back to US20230040081A1 (priority 2019, published 2023).

“And” between values parts separate entries of the source, which are not always exact repeats. Equal entries are not always repeated.

Series [1] relates to Clopt1 (Vaccinia virus). It is filed as cell-based.
In series [2] the test system is Clopt1 (Vaccinia virus). It counts as cell-based. The source holds these as a separate data set.
The target in series [3] is Vaccinia RNA polymerase core enzyme (Rpo147/Rpo132/Rpo35/Rpo30/Rpo22/Rpo19/Rpo18/Rpo7) (Vaccinia virus (GLV-1h439, Lister …, UniProt P07392;Q76ZP7;P24757;P21603;P68609;P68611;P04310;P68317 …)). Description: structure. The following applies: tags: HA/FLAG C-terminal on Rpo132.

With `NC(=O)CC[C@H](N)C(=O)O` [glutamine, L-glutamine], in the series on Clopt1 (Vaccinia virus) [1], the Factor is 1222 and 1468 and 1774 and 2000; the “virus replication, times higher with glutamine in the third medium switch than negative counterparts” value is listed as “more than 1000 times”. In addition, the “intensity, times lower without glutamine in the third medium switch than counterparts” value in the series on Clopt1 (Vaccinia virus) [2] is “roughly 100 times”. Moreover, in the series on Clopt1 (Vaccinia virus) [2] (after 21 hours), the “final intensity, times lower in glutamine absence than in glutamine fed samples” value is reported as “over 100 times”.

B1: vRNAP elongation scaffold (template DNA/non-template DNA/RNA) (mixed)
DNA 1: GACTTATGATCGGATAAGAGTCCAGCCAATGACAGATGCCTCATAGCC
DNA 2: GGCTATGAGGCATCCCATGCGTTGAGGACTCTTATCCGATCATAAGTC
RNA: GAGUUGUAAUAACAAGGGAAAUGUCAUUGGC
modifications: RNA 5'-triphosphate
On to B1, for which the binding result in series [3] is “binds”.
